Source: patent US11382956B2, “Amylin analogues” (Zealand Pharma A/S, priority 2016, dated 2022)
pEC50: −log10 of the molar value. Numbered stars: 1 amine (or outer) side, 2 acyl side, 3 side chain; on linkers, the order of the positions; unused ones are H or OH. Bridge positions count the residues as written; N and C are the ends. Square brackets hold non-standard residues; d marks the D form. Peptide text beside a SMILES is read from it. * marks the point of attachment. C20 diacid = O=C(O)CCCCCCCCCCCCCCCCCCC(=O)*; γGlu = O=C(O)[C@H](CCC(=O)[*:2])N[*:1]; Hyp = O=C(O)[C@@H]1C[C@@H](O)CN1; NMeI = CC[C@H](C)[C@H](NC)C(=O)O; Aad = N[C@@H](CCCC(=O)O)C(=O)O; Orn = NCCC[C@H](N)C(=O)O; Dap = NC[C@H](N)C(=O)O; Sar = CNCC(=O)O

Legend:
[1] = target: T1, recombinant human calcitonin receptor (hCT-R) (Homo sapiens, UniProt P30988); assay: hCT-R cAMP assay (AlphaScreen) in 1321N1 cells; format: cell-based; conditions: cAMP formation, 45 min stimulation
T1 construct: host or cells: human astrocytoma cell line 1321N1
T1 sequence (P30988 25-474): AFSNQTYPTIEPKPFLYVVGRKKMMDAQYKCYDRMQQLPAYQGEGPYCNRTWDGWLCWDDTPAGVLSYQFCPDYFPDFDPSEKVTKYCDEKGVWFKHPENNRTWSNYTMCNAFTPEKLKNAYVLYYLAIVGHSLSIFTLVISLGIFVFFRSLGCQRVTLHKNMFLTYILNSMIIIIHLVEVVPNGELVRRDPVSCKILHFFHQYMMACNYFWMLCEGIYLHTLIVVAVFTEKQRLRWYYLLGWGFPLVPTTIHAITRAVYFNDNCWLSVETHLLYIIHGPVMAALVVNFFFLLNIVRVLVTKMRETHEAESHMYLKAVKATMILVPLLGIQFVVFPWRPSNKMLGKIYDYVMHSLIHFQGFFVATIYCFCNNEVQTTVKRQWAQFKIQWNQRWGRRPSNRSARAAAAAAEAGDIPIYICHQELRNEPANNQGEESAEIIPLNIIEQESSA
Outline: (§1)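 EC50 values come from curve fits over at least 7 peptide concentrations, with cAMP read by AlphaScreen competition after 1 h in the dark. Cells were 1321N1 lines carrying human calcitonin receptor, with RAMP3 co-expressed for AMY3, treated 45 min at room temperature in the presence of IBMX.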

[2] = target: T2, recombinant human amylin 3 receptor (hAMYR3) (Homo sapiens, UniProt O60896+P30988); assay: hAMYR3 cAMP assay (AlphaScreen) in 1321N1 cells; format: cell-based; conditions: cAMP formation, 45 min stimulation
T2 construct: host or cells: human astrocytoma cell line 1321N1
T2 sequence (P30988 25-474): T1 sequence (P30988 25-474)
T2 sequence (O60896 24-148 partner): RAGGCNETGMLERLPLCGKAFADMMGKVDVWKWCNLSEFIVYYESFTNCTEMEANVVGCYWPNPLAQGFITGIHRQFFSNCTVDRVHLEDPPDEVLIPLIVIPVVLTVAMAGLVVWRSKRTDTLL
Outline: as §1

[3] = Assessment of chemical stability in 40 mM buffers at 40° C. (RP-HPLC); format: physicochemical; conditions: 1 mg/mL
Protocol: Samples of each test peptide were dissolved in acetate buffer pH 4 and phosphate buffer pH 6 and 7 (all buffer 40 mM). The final peptide concentration was 1 mg/mL. Samples were placed in glass vials and incubated at 40° C. The samples were analyzed by RP-HPLC on a C8 column with gradient elution using a trifluoroacetic acid/acetonitrile/water eluent system. The area-percentage (area-%) of the main peak was determined by UV spectroscopy at 220 nm at each sampling time point.
The % degradation was calculated by subtracting the […].
The results of the chemical stability assessment after 3 days of incubation time are summarized as % degradation in Table 1 (below).
The results of the chemical stability assessment after 14 days of incubation time are summarized as % degradation in Table 2 (below).

In the case of `CC[C@H](C)[C@@H](C(=O)N[C@@H](CC(C)C)C(=O)N[C@@H](CO)C(=O)N[C@@H](CO)C(=O)N[C@H](C(=O)N[C@@H](CCC(=O)O)C(=O)N[C@H](C(=O)NCC(=O)N[C@@H](CO)C(=O)N[C@@H](CC(N)=O)C(=O)N[C@H](C(=O)N1C[C@H](O)C[C@H]1C(N)=O)[C@@H](C)O)C(C)C)[C@@H](C)O)N(C)C(=O)[C@H](C)NC(=O)CN(C)C(=O)[C@H](Cc1ccccc1)NC(=O)[C@H](CO)NC(=O)[C@H](CO)NC(=O)[C@H](CCCNC(=N)N)NC(=O)[C@H](CCC(N)=O)NC(=O)[C@H](CC(C)C)NC(=O)[C@H](Cc1ccccc1)NC(=O)[C@H](Cc1c[nH]cn1)NC(=O)[C@H](C)NC(=O)[C@H](CC(C)C)NC(=O)[C@H](CCCNC(=N)N)NC(=O)[C@H](CCC(=O)O)NC(=O)[C@@H](NC(=O)[C@H](C)NC(=O)[C@@H]1CSSC[C@H](NC(=O)[C@H](CCCNC(=N)N)NC(=O)CC[C@H](NC(=O)CCCCCCCCCCCCCCCCCCC(=O)O)C(=O)O)C(=O)NCC(=O)N[C@@H]([C@@H](C)O)C(=O)N[C@@H](C)C(=O)N[C@@H]([C@@H](C)O)C(=O)N1)[C@@H](C)O` [Ref. 2, [19CD]-isoGlu-RC()GTATC()ATERLAHFLQRSSF-Sar-A-Ile(Me)-LSSTEVGSNT-Hyp-NH2, reference compound] ({C20 diacid-γGlu}-RCGTATCATERLAHFLQRSSF[Sar]A[NMeI]LSSTEVGSNT[Hyp]-NH2; disulfide 2-7), the pEC50 [1] was 10.72, the pEC50 [2] was 11.52 and the “% degradation after 14 days at 40° C. pH4 acetate” value ([3]; acetate buffer pH 4, 14 days) was under 1%. For the same molecule, the “% degradation after 14 days at 40° C. pH6 phosphate” value ([3]; phosphate buffer pH 6, 14 days) was 4.6%.
`CC[C@H](C)[C@@H](C(=O)N[C@@H](CC(C)C)C(=O)N[C@@H](CO)C(=O)N[C@@H](CO)C(=O)N[C@H](C(=O)N[C@@H](CCC(=O)O)C(=O)N[C@H](C(=O)NCC(=O)N[C@@H](CO)C(=O)N[C@@H](CC(N)=O)C(=O)N[C@H](C(=O)N1C[C@H](O)C[C@H]1C(N)=O)[C@@H](C)O)C(C)C)[C@@H](C)O)N(C)C(=O)[C@H](C)NC(=O)CN(C)C(=O)[C@H](Cc1ccccc1)NC(=O)[C@@H](NC(=O)[C@@H](NC(=O)[C@H](CCCNC(=N)N)NC(=O)[C@H](CCC(N)=O)NC(=O)[C@H](CC(C)C)NC(=O)[C@H](Cc1ccccc1)NC(=O)[C@H](CCCC(=O)O)NC(=O)[C@H](C)NC(=O)[C@H](CC(C)C)NC(=O)[C@H](CCCNC(=N)N)NC(=O)[C@H](CCC(=O)O)NC(=O)[C@@H](NC(=O)[C@H](C)NC(=O)[C@@H]1CCCNC(=O)C[C@H](NC(=O)[C@H](CCCNC(=N)N)NC(=O)CC[C@H](NC(=O)CCCCCCCCCCCCCCCCCCC(=O)O)C(=O)O)C(=O)NCC(=O)N[C@@H]([C@@H](C)O)C(=O)N[C@@H](C)C(=O)N[C@@H]([C@@H](C)O)C(=O)N1)[C@@H](C)O)[C@@H](C)O)[C@@H](C)O` [Compound 23, [19CD]-isoGlu-RD()GTAT-Orn()-ATERLA-Aad-FLQRTTF-Gly(Me)-A-Ile(Me)-LSSTEVGSNT-Hyp-NH2] ({C20 diacid-γGlu}-RDGTAT[Orn]ATERLA[Aad]FLQRTTF[Sar]A[NMeI]LSSTEVGSNT[Hyp]-NH2; lactam 2-7) gave a pEC50 [1] of 8.71 and a pEC50 [2] of 9.15.
Molecule `CC[C@H](C)[C@@H](C(=O)N[C@@H](CC(C)C)C(=O)N[C@@H](CO)C(=O)N[C@@H](CO)C(=O)N[C@H](C(=O)N[C@@H](CCC(=O)O)C(=O)N[C@H](C(=O)NCC(=O)N[C@@H](CO)C(=O)N[C@@H](CC(N)=O)C(=O)N[C@H](C(=O)N1C[C@H](O)C[C@H]1C(N)=O)[C@@H](C)O)C(C)C)[C@@H](C)O)N(C)C(=O)[C@H](C)NC(=O)CN(C)C(=O)[C@H](Cc1ccccc1)NC(=O)[C@H](C)NC(=O)[C@H](C)NC(=O)[C@H](CCCNC(=N)N)NC(=O)[C@H](CCC(N)=O)NC(=O)[C@H](CC(C)C)NC(=O)[C@H](Cc1ccccc1)NC(=O)[C@H](CCCC(=O)O)NC(=O)[C@H](C)NC(=O)[C@H](CC(C)C)NC(=O)[C@H](CCCNC(=N)N)NC(=O)[C@H](CCC(=O)O)NC(=O)[C@@H](NC(=O)[C@H](C)NC(=O)[C@@H]1CCCCNC(=O)C[C@H](NC(=O)[C@H](CCCNC(=N)N)NC(=O)CC[C@H](NC(=O)CCCCCCCCCCCCCCCCCCC(=O)O)C(=O)O)C(=O)NCC(=O)N[C@@H]([C@@H](C)O)C(=O)N[C@@H](C)C(=O)N[C@@H]([C@@H](C)O)C(=O)N1)[C@@H](C)O` [Compound 31, [19CD]-isoGlu-RD()GTATK()ATERLA-Aad-FLQRAAF-Gly(Me)-A-Ile(Me)-LSSTEVGSNT-Hyp-NH2] ({C20 diacid-γGlu}-RDGTATKATERLA[Aad]FLQRAAF[Sar]A[NMeI]LSSTEVGSNT[Hyp]-NH2; lactam 2-7) has a pEC50 [1] of 9.64 and a pEC50 [2] of 10.18.
For `CC[C@H](C)[C@@H](C(=O)N[C@@H](CC(C)C)C(=O)N[C@@H](CO)C(=O)N[C@@H](CO)C(=O)N[C@H](C(=O)N[C@@H](CCC(=O)O)C(=O)N[C@H](C(=O)NCC(=O)N[C@@H](CO)C(=O)N[C@@H](CC(N)=O)C(=O)N[C@H](C(=O)N1C[C@H](O)C[C@H]1C(N)=O)[C@@H](C)O)C(C)C)[C@@H](C)O)N(C)C(=O)[C@H](C)NC(=O)CN(C)C(=O)[C@H](Cc1ccccc1)NC(=O)[C@H](CCCNC(=N)N)NC(=O)[C@H](CCC(N)=O)NC(=O)[C@H](CC(C)C)NC(=O)[C@H](Cc1ccccc1)NC(=O)[C@H](Cc1c[nH]cn1)NC(=O)[C@H](C)NC(=O)[C@H](CC(C)C)NC(=O)[C@H](CCCNC(=N)N)NC(=O)[C@H](CCC(=O)O)NC(=O)[C@@H](NC(=O)[C@H](C)NC(=O)[C@@H]1CCCNC(=O)C[C@H](NC(=O)[C@H](CCCNC(=N)N)NC(=O)CC[C@H](NC(=O)CCCCCCCCCCCCCCCCCCC(=O)O)C(=O)O)C(=O)NCC(=O)N[C@@H]([C@@H](C)O)C(=O)N[C@@H](C)C(=O)N[C@@H]([C@@H](C)O)C(=O)N1)[C@@H](C)O` [Compound 6, [19CD]-isoGlu-RD()GTAT-Orn()-ATERLAHFLQRF-Gly(Me)-A-Ile(Me)-LSSTEVGSNT-Hyp-NH2] ({C20 diacid-γGlu}-RDGTAT[Orn]ATERLAHFLQRF[Sar]A[NMeI]LSSTEVGSNT[Hyp]-NH2; lactam 2-7), the pEC50 [1] was 9.49 and the pEC50 [2] was 10.96.
`CC[C@H](C)[C@@H](C(=O)N[C@@H](CC(C)C)C(=O)N[C@@H](CO)C(=O)N[C@@H](CO)C(=O)N[C@H](C(=O)N[C@@H](CCC(=O)O)C(=O)N[C@H](C(=O)NCC(=O)N[C@@H](CO)C(=O)N[C@@H](CC(N)=O)C(=O)N[C@H](C(=O)N1C[C@H](O)C[C@H]1C(N)=O)[C@@H](C)O)C(C)C)[C@@H](C)O)N(C)C(=O)[C@H](C)NC(=O)CN(C)C(=O)[C@H](Cc1ccccc1)NC(=O)[C@H](CO)NC(=O)[C@H](CO)NC(=O)[C@H](CCCNC(=N)N)NC(=O)[C@H](CCC(N)=O)NC(=O)[C@H](CC(C)C)NC(=O)[C@H](Cc1ccccc1)NC(=O)[C@H](Cc1c[nH]cn1)NC(=O)[C@H](C)NC(=O)[C@H](CC(C)C)NC(=O)[C@H](CCCNC(=N)N)NC(=O)[C@H](CCC(=O)O)NC(=O)[C@@H](NC(=O)[C@H](C)NC(=O)[C@@H]1CC(=O)NC[C@H](NC(=O)[C@H](CCCNC(=N)N)NC(=O)CC[C@H](NC(=O)CCCCCCCCCCCCCCCCCCC(=O)O)C(=O)O)C(=O)NCC(=O)N[C@@H]([C@@H](C)O)C(=O)N[C@@H](C)C(=O)N[C@@H]([C@@H](C)O)C(=O)N1)[C@@H](C)O` [Compound 45, [19CD]-isoGlu-R-Dap()-GTATD()ATERLAHFLQRSSF-Gly(Me)-A-Ile(Me)-LSSTEVGSNT-Hyp-NH2] ({C20 diacid-γGlu}-R[Dap]GTATDATERLAHFLQRSSF[Sar]A[NMeI]LSSTEVGSNT[Hyp]-NH2; lactam 2-7) showed a pEC50 [1] of 6.52 and a pEC50 [2] of 6.55.
